Laboratory results: US6204293A, “Inhibitors of protein isoprenyl transferases” (University of Pittsburgh, priority 1998, dated 2001)
Where a name gives a salt, the structure may show the parent alone. Read-outs that look alike come from different tables or passages of the source. Values belong to the compound of their own block, whether it stands above or below them.

Biological target: T1, Rat brain protein farnesyltransferase (Rattus norvegicus, UniProt Q02293+Q04631)
T1 construct: Rat brain protein farnesyltransferase activity is measured; from tissue; host or cells: rat brain
Test: % inhibition of farnesylation, scintillation proximity assay with biotin-K Ras B fragment
Assay type: biochemical
Settings: for % inhibition at 1 × 10^-8 M: Table 4; for % inhibition at 1 × 10^-5 M: Table 1; for % inhibition at 1 × 10^-6 M / inhibition at 1 µM: Table 2, 1 × 10^-6 M; for inhibition at 1 µM: read-out: % inhibition at 1 × 10^-6 M
Outline: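 Scintillation proximity read-out of farnesylation, using a biotinylated K Ras B fragment (0.1 mM final) in place of biotin-lamin. Enzyme purified from rat brain; results given as % inhibition.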

[1] = read-out: % inhibition at 1 × 10^-7 M, Table 3, 1 × 10^-7 M
[2] = read-out: % inhibition at 1 × 10^-7 M
[3] = read-out: % inhibition at 0.01 μM (**), Table 6, ** footnote 0.01 μM (title: 0.01 mM)
[4] = read-out: % inhibition at 1 × 10^-8 M

T1 sequence (Q02293 whole entry, one chain of several): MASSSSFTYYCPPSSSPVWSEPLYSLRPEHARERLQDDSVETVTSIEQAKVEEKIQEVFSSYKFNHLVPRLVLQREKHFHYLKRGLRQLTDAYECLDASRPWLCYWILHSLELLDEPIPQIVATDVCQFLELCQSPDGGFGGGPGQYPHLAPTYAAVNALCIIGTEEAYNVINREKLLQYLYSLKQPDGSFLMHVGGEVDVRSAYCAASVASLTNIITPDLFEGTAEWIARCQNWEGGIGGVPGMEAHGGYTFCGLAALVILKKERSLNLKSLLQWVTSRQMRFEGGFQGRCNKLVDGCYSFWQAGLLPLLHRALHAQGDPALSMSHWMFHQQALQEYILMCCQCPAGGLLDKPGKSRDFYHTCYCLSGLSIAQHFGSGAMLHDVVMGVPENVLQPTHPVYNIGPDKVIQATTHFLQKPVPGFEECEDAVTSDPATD

- % inhibition at 1 × 10^-8 M: 92%
SMILES: CSCC[C@H](NC(=O)c1ccc(CN[C@@H](CC2CCCCC2)C(=O)N2CCCCC2)cc1-c1ccccc1C)C(=O)O [Example 887]

- % inhibition at 1 × 10^-5 M: 47%
SMILES: COc1cc(I)c(C(=O)Nc2ccc(C(=O)N[C@@H](CCSC)C(=O)O)c(-c3ccccc3)c2)cc1OC [Example 756]

- % inhibition at 1 × 10^-5 M: 40%
SMILES: CSCC[C@H](NC(=O)c1ccc(CNC(CO)C(O)c2ccccc2)cc1-c1ccccc1)C(=O)O (stereo partly drawn) [Example 713]

SMILES: CSCC[C@H](NC(=O)c1ccc(CCc2cccc3ccccc23)cc1-c1ccccc1C)C(=O)[O-].[Li+] [Example 467]
- % inhibition at 1 × 10^-6 M: 97%

- % inhibition at 1 × 10^-6 M: 93%
SMILES: Cc1ccccc1-c1cc(CN(C2CC2)C2(CC3CCCCC3)CCC2)ccc1C(=O)N[C@@H](CCS(C)(=O)=O)C(=O)O [Example 334]

- % inhibition at 1 × 10^-6 M: 95%
SMILES: CSCC[C@H](NC(=O)c1ccc(NC(=O)c2cnccc2C(F)(F)F)cc1-c1ccccc1C)C(=O)O [Example 481]

- % inhibition at 1 × 10^-5 M: 58%
SMILES: CSCC[C@H](NC(=O)c1ccc(CNc2cccc(CO)c2)cc1-c1ccccc1)C(=O)O [Example 680]

- inhibition at 0.1 µM (read-out: % inhibition at 0.1 μM (*), Table 6, * footnote 0.1 μM (title: 0.1 mM)): 76%
SMILES: CCCCC(OCc1ccc(C(=O)N[C@@H](CCSC)C(=O)O)c(-c2ccccc2C)c1)c1scnc1C (stereo partly drawn) [Example 1095, N-[4-(1-(4-methylthiazol-5-yl)pentyloxy)methyl)-2-(2-methylphenyl)benzoyl]methionine lithium salt]

- % inhibition at 1 × 10^-8 M: 74%
SMILES: CCCCS(=O)(=O)N(CCCc1ccccc1)Cc1ccc(C(=O)N[C@@H](CCSC)C(=O)O)c(-c2ccccc2C)c1 [Example 927]

- % inhibition at 1 × 10^-6 M: 96%
SMILES: CSCC[C@H](NC(=O)c1ccc(CN(CCc2ccccc2)c2ccccc2)cc1-c1ccccc1C)C(=O)O [Example 507]

- inhibition at 0.1 µM [1]: 93%
SMILES: CSCC[C@H](NC(=O)c1ccc(COCC2CCC(c3ccc(Cl)cc3)O2)cc1-c1ccccc1C)C(=O)O (stereo partly drawn) [Example 822, N-[4-(5-syn(4chlorophenyl)tetrahydrofuran-2-ylmethoxymethyl)-2-(2-methylphenyl)benzoyl]methionine lithium salt]

SMILES: CSCC[C@H](NC(=O)c1ccc(COc2ccc(Oc3ccccc3)cc2)cc1-c1ccccc1C)C(=O)O [Example 795, N-[4-(4-phenoxyphenoxymethyl)-2-(2-methylphenyl)benzoyl]methionine lithium salt]
- inhibition at 0.1 µM [2]: 87%

- % inhibition at 1 × 10^-6 M: 95%
SMILES: CSCC[C@H](NC(=O)c1ccc(CN(CCCc2ccccc2)c2ccccc2)cc1-c1ccccc1C)C(=O)O [Example 508]

- % inhibition at 1 × 10^-5 M: 58%
SMILES: CSCC[C@H](NC(=O)c1ccc(NC(=O)c2cccc(N(C)C)c2)cc1-c1ccccc1)C(=O)O [Example 752]

- % inhibition at 1 × 10^-6 M: 37%
SMILES: CSCC[C@H](NC(=O)c1ccc(CNc2ccccc2Oc2ccccc2)cc1-c1ccccc1)C(=O)O [Example 645]

SMILES: CCOC(=O)N1CCC(NCc2ccc(C(=O)N[C@@H](CCSC)C(=O)[O-])c(-c3ccccc3C)c2)CC1.[Li+] [Example 806]
- % inhibition at 1 × 10^-6 M: 72%

- inhibition at 0.01 µM [3]: 69%
SMILES: CSCC[C@H](NC(=O)c1ccc(COCc2cc(F)cc(F)c2)cc1-c1ccccc1C)C(=O)O [Example 1226, N-[4-(3,5-trifluorobenzyloxymethyl)-2-(2-methylphenyl)benzoyl]methionine lithium salt]

SMILES: CSCC[C@H](NC(=O)c1ccc(COCc2cccc(Cl)c2)cc1-c1ccccc1C)C(=O)O [Example 934, N-[4-(3-chlorobenzyloxymethyl)-2-(2-methylphenyl)benzoyl]methionine lithium salt]
- inhibition at 0.01 µM [4]: 71%

- % inhibition at 1 × 10^-6 M: 36%
SMILES: CSCC[C@H](NC(=O)c1ccc(CNc2ccccc2CCO)cc1-c1ccccc1)C(=O)O [Example 671]

- % inhibition at 1 × 10^-8 M: 92%
SMILES: CSCC[C@H](NC(=O)c1ccc(CN(Cc2ccc3c(c2)OCO3)c2cnccn2)cc1-c1ccccc1C)C(=O)O [Example 838]

SMILES: CSCC[C@H](NC(=O)c1ccc(-c2ccc(-c3ccccc3)cc2)cc1-c1ccccc1C)C(=O)[O-].[Li+] [Example 788]
- % inhibition at 1 × 10^-6 M: 44%

SMILES: CCCCC(OCc1ccc(C(=O)N[C@@H](CCSC)C(=O)O)c(-c2ccccc2C)c1)c1cccc(OC)c1 (stereo partly drawn) [Example 1208, N-[4-(1-(3-Methoxyphenyl)pentan-1-yloxymethyl)-2-(2-methylphenyl)benzoyl]methionine lithium salt]
- inhibition at 0.1 µM (read-out: % inhibition at 0.1 μM (*)): 89%

- % inhibition at 1 × 10^-6 M: 35%
SMILES: COc1ccccc1CCC(=O)Nc1ccc(C(=O)N[C@@H](CCSC)C(=O)O)c(-c2ccccc2C)c1 [Example 544]

- inhibition at 1 µM: 84%
SMILES: CSCC[C@H](NC(=O)c1ccc(CSc2nc(O)cc(Cc3ccccc3)n2)cc1-c1ccccc1C)C(=O)O [Example 744]

- % inhibition at 1 × 10^-6 M: 88%
SMILES: Cc1ccccc1-c1cc(CCc2cccc(Oc3ccccc3)c2)ccc1C(=O)N[C@@H](CC[S+](C)[O-])C(=O)O (stereo partly drawn) [Example 460]

SMILES: CSCC[C@H](NC(=O)c1ccc(COCc2cccc(C(C)C)c2)cc1-c1ccccc1C)C(=O)O [Example 939, N-[4-(3-isopropylbenzyloxymethyl)-2-(2-methylphenyl)benzoyl]methionine lithium salt]
- inhibition at 0.01 µM [4]: 72%

SMILES: CSCC[C@H](NC(=O)c1ccc(COCc2cnc(-c3cccc(F)c3)s2)cc1-c1ccccc1C)C(=O)O [Example 898, N-[4-(2-(3-fluorophenyl)thiazol-5-ylmethoxymethyl)-2-(2-methylphenyl)benzoyl]methionine lithium salt]
- inhibition at 0.01 µM [4]: 82%

- inhibition at 1 µM: 98%
SMILES: CSCC[C@H](NC(=O)c1ccc(COCCC23CC4CC(CC(C4)C2)C3)cc1-c1ccccc1C)C(=O)O [Example 404, 4-[2-(1-adamantane)ethoxy]methyl-2(2-methylphenyl)benzoylmethionine lithium salt.]

- % inhibition at 1 × 10^-6 M: 32%
SMILES: CSCC[C@H](NC(=O)c1ccc(S(=O)(=O)NCCN2CCOCC2)cc1-c1ccccc1C)C(=O)O [Example 775]

- % inhibition at 1 × 10^-7 M (Table 3, 1 × 10^-7 M): 95%
SMILES: CSCC[C@H](NC(=O)c1ccc(CN[C@H](CSC(C)(C)C)CC2CCCCC2)cc1-c1ccccc1C)C(=O)O [Example 622]

SMILES: COc1ccc(COCc2ccc(C(=O)N[C@@H](CCSC)C(=O)O)c(-c3ccccc3C)c2)cc1 [Example 935, N-[4-(4-methoxybenzyloxymethyl)-2-(2-methylphenyl)benzoyl]methionine lithium salt]
- inhibition at 0.1 µM [2]: 72%

- % inhibition at 1 × 10^-6 M: 48%
SMILES: CSCC[C@H](NC(=O)c1ccc(CNc2ccccc2F)cc1-c1ccccc1)C(=O)O [Example 642]

SMILES: CSCC[C@H](NC(=O)c1ccc(C#Cc2cncnc2)cc1-c1ccccc1C)C(=O)[O-].[Li+] [Example 493]
- % inhibition at 1 × 10^-7 M (Table 3, 1 × 10^-7 M): 51%

- % inhibition at 1 × 10^-7 M (Table 3, 1 × 10^-7 M): 97%
SMILES: CSCC[C@H](NC(=O)c1ccc(/C=C/c2ccc(Oc3ccccc3[N+](=O)[O-])cc2)cc1-c1ccccc1C)C(=O)O [Example 856]

- inhibition at 0.01 µM [3]: 79%
SMILES: COc1ccc(COC[C@H](CC2CCCCC2)OCc2ccc(C(=O)N[C@@H](CCSC)C(=O)O)c(-c3ccccc3C)c2)cc1 [Example 1051, N-[4-(3-cyclohexyl-1-(4-methoxybenzyloxy)prop-2-yloxymethyl)-2-(2-methylphenylbenzoyl]methionine, lithium salt]

- % inhibition at 1 × 10^-6 M: 96%
SMILES: CSCC[C@H](NC(=O)c1ccc(CN(CCc2ccccc2)Cc2ccccc2)cc1-c1ccccc1C)C(=O)O [Example 513]

- % inhibition at 1 × 10^-5 M: 40%
SMILES: COc1ccc(Br)c(C(=O)Nc2ccc(C(=O)N[C@@H](CCSC)C(=O)O)c(-c3ccccc3)c2)c1 [Example 754]

- % inhibition at 1 × 10^-8 M: 97%
SMILES: CSCC[C@H](NC(=O)c1ccc(CN[C@H](CSc2ccccc2C)CC2CCCCC2)cc1-c1ccccc1C)C(=O)O [Example 767]

- % inhibition at 1 × 10^-6 M: 53%
SMILES: CSCC[C@H](NC(=O)c1ccc(CNc2ccc(C(O)(C(F)(F)F)C(F)(F)F)cc2)cc1-c1ccccc1)C(=O)O [Example 693]

- % inhibition at 1 × 10^-8 M: 96%
SMILES: CCCCS(=O)(=O)N(CCC1CCCCC1)Cc1ccc(C(=O)N[C@@H](CCSC)C(=O)O)c(-c2ccccc2C)c1 [Example 916]

SMILES: CSCC[C@H](NC(=O)c1ccc(COCc2ccc(C)cc2)cc1-c1ccccc1C)C(=O)O [Example 579, N-[4-(4-methylbenzyloxymethyl)-2-(2-methylphenyl)benzoyl]methionine lithium salt]
- inhibition at 0.1 µM [2]: 92%

- % inhibition at 1 × 10^-5 M: 48%
SMILES: CSCC[C@H](NC(=O)c1ccc(CNc2ccccc2N(C)C)cc1-c1ccccc1)C(=O)O [Example 672]

- inhibition at 0.1 µM [1]: 96%
SMILES: COc1ncc(COCc2ccc(C(=O)N[C@@H](CCSC)C(=O)O)c(-c3ccccc3C)c2)s1 [Example 896, N-[4-(2-methoxythiazol-5-ylmethoxymethyl)-2-(2-methylphenylbenzoyl]methioninelithium salt]

- inhibition at 0.1 µM [1]: 93%
SMILES: CSCC[C@H](NC(=O)c1ccc(CSc2nc3ccccc3c(=O)[nH]2)cc1-c1ccccc1C)C(=O)O [Example 745]

- inhibition at 1 µM: 96%
SMILES: CSCC[C@H](NC(=O)c1ccc(COCc2ccc(CN(C)C)o2)cc1-c1ccccc1C)C(=O)O [Example 435, N-[4-(5-N,N-dimethylaminomethylfuran-2-ylmethoxymethyl)-2-(2-methylphenyl)benzoyl]methionine]

- inhibition at 0.1 µM [1]: 94%
SMILES: CSCC[C@H](NC(=O)c1ccc(CSc2ccc(F)cc2)cc1-c1ccccc1C)C(=O)O [Example 740]

SMILES: CSCC[C@H](NC(=O)c1ccc(CN(CCC2CCCCC2)C(C)=O)cc1-c1ccccc1C)C(=O)[O-].[Li+] [Example 609]
- % inhibition at 1 × 10^-7 M (Table 3, 1 × 10^-7 M): 95%

- % inhibition at 1 × 10^-6 M: 36%
SMILES: COc1ccc(CCNS(=O)(=O)c2ccc(C(=O)N[C@@H](CCSC)C(=O)O)c(-c3ccccc3C)c2)cc1OC [Example 776]
